Among the data in patent publication US11033539B2, “Compounds of formulas (VII), (VIII), (IX), (XI), (XII), (XIII), and (XIV) as muscarinic receptor 4(M4) antagonists for treating neurological diseases” (Neurocrine Biosciences, Inc., priority 2015, dated 2021) are Ki values, retold here.

In this experiment the target is human M4 receptor (Homo sapiens (Human), UniProt P08173). Nature of the experiment: Radioligand (tritiated N-methylscopolamine) binding assay, M4. The settings on record: Ki against the M4 receptor; membranes from CHO cells expressing human M4; tritiated N-methylscopolamine 1.5 nM; read-out: Ki. An outline of the steps:
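Ki values come from displacement of 1.5 nM radioligand from membranes of receptor-expressing CHO cells, with filter-trapped radioactivity counted after rapid vacuum filtration. Twelve compound concentrations (10 μM to […]) were incubated for 90 min at 37 °C at pH 7.4.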

Sequence of human M4 receptor (P08173 whole entry): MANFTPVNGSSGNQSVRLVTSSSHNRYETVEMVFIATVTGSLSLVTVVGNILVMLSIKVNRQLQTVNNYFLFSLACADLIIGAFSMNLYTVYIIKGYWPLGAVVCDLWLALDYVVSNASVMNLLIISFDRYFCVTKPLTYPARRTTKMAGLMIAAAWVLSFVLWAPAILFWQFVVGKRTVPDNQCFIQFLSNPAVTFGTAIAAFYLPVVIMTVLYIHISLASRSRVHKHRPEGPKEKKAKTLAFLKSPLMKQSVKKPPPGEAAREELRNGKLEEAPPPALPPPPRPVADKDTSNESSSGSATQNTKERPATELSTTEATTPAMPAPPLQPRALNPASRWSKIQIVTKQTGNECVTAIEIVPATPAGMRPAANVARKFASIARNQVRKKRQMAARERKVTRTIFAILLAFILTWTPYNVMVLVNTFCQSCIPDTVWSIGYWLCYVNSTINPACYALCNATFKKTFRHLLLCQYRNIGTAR

As to `Cc1cc(CN2CCC(CCNC(=O)N3[C@H](C)CN(c4ncc(C#N)cn4)C[C@@H]3C)CC2)ccc1O` [6-57, (2R,6S)-4-(5-cyanopyrimidin-2-yl)-N-(2-{1-[(4-hydroxy-3-methylphenyl)methyl]piperidin-4-yl}ethyl)-2,6-dimethylpiperazine-1-carboxamide], the Ki was 10 to 100 nM.
Turning to `C[C@@H]1CN(c2ncc(C#N)cn2)C[C@H](C)N1C(=O)NCCC1CCN(Cc2ncccn2)CC1` [6-58, (2R,6S)-4-(5-cyanopyrimidin-2-yl)-2,6-dimethyl-N-{2-[1-(pyrimidin-2-ylmethyl)piperidin-4-yl]ethyl}piperazine-1-carboxamide], the Ki fell in the range of 100 to 1000 nM.
Turning to `COc1cccc(CN2CCC(CCNC(=O)N3[C@H](C)CN(c4ncc(C#N)cn4)C[C@@H]3C)CC2)c1` [6-59, (2R,6S)-4-(5-cyanopyrimidin-2-yl)-N-(2-{1-[(3-methoxyphenyl)-methyl]piperidin-4-yl}ethyl)-2,6-dimethylpiperazine-1-carboxamide], the Ki was 10 to 100 nM.
The figure for `C[C@@H]1CN(c2ncc(C#N)cn2)C[C@H](C)N1C(=O)NCCC1CCN(Cc2ccc3occc3c2)CC1` [6-60, (2R,6S)-N-{2-[1-(1-benzofuran-5-ylmethyl)piperidin-4-yl]ethyl}-4-(5-cyanopyrimidin-2-yl)-2,6-dimethylpiperazine-1-carboxamide] is 10 to 100 nM; for `C[C@@H]1CN(c2ncc(C#N)cn2)C[C@H](C)N1C(=O)NCCC1CCN(Cc2cccnc2)CC1` [6-61, (2R,6S)-4-(5-cyanopyrimidin-2-yl)-2,6-dimethyl-N-{2-[1-(pyridin-3-ylmethyl)piperidin-4-yl]ethyl}piperazine-1-carboxamide] it is 100 to 1000 nM; for `C[C@@H]1CN(c2ncc(C#N)cn2)C[C@H](C)N1C(=O)NCCC1CCN(Cc2ccncc2)CC1` [6-62, (2R,6S)-4-(5-cyanopyrimidin-2-yl)-2,6-dimethyl-N-{2-[1-(pyridin-4-ylmethyl)piperidin-4-yl]ethyl}piperazine-1-carboxamide] it is 100 to 1000 nM.
Next, `C[C@@H]1CN(c2ncc(C#N)cn2)C[C@H](C)N1C(=O)NCCC1CCN(Cc2ccc(B(O)O)cc2)CC1` [6-63, (4-{[4-(2-{[(2R,6S)-4-(5-cyanopyrimidin-2-yl)-2,6-dimethyl-piperazine-1-carbonyl]amino}ethyl)piperidin-1-yl]methyl}phenyl)boronic acid]: 100 to 1000 nM.
Next, `C[C@@H]1CN(c2ncc(C#N)cn2)C[C@H](C)N1C(=O)NCCC1CCN(Cc2cccnc2F)CC1` [6-64, (2R,6S)-4-(5-cyanopyrimidin-2-yl)-N-(2-{1-[(2-fluoropyridin-3-yl)methyl]piperidin-4-yl}ethyl)-2,6-dimethylpiperazine-1-carboxamide]: 100 to 1000 nM; `COc1ccc(CN2CCC(CCNC(=O)N3[C@H](C)CN(c4ncc(C#N)cn4)C[C@@H]3C)CC2)cc1` [6-65, (2R,6S)-4-(5-cyanopyrimidin-2-yl)-N-(2-{1-[(4-methoxyphenyl)-methyl]piperidin-4-yl}ethyl)-2,6-dimethylpiperazine-1-carboxamide]: 10 to 100 nM.
Regarding `C[C@@H]1CN(c2ncc(C#N)cn2)C[C@H](C)N1C(=O)NCCC1CCN(Cc2ccc3c(c2)nnn3C)CC1` [6-66, (2R,6S)-4-(5-cyanopyrimidin-2-yl)-2,6-dimethyl-N-(2-{1-[(1-methyl-1H-1,2,3-benzotriazol-5-yl)methyl]piperidin-4-yl}ethyl)piperazine-1-carboxamide], the inhibition constant Ki fell in the range of 100 to 1000 nM.
Regarding `COc1ccccc1CN1CCC(CCNC(=O)N2[C@H](C)CN(c3ncc(C#N)cn3)C[C@@H]2C)CC1` [6-67, (2R,6S)-4-(5-cyanopyrimidin-2-yl)-N-(2-{1-[(2-methoxyphenyl)-methyl]piperidin-4-yl}ethyl)-2,6-dimethylpiperazine-1-carboxamide], the Ki was in the range of 10 to 100 nM.
For `C[C@@H]1CN(c2ccc(F)c(C#N)c2)CCN1C(=O)NCCC1(CO)CCN(Cc2ccccc2)CC1` [7-2, (2R)-N-{2-[1-benzyl-4-(hydroxymethyl)piperidin-4-yl]ethyl}-4-(3-cyano-4-fluorophenyl)-2-methylpiperazine-1-carboxamide], the inhibition constant Ki lay within 10 to 100 nM.
Consider `C[C@@H]1CN(c2ccc(OC(F)(F)F)c(C#N)c2)CCN1C(=O)NCCN1CCN(Cc2ccccc2)CC1` [7-3, (2R)-N-[2-(4-benzylpiperazin-1-yl)ethyl]-4-[3-cyano-4-(trifluoromethoxy)phenyl]-2-methylpiperazine-1-carboxamide], for which the Ki was in the range of 10 to 100 nM.
The figure for `C[C@@H]1CN(c2cc(F)cc(C#N)c2)CCN1C(=O)NC[C@H](O)C1CCN(Cc2ccccc2)CC1` [7-4, (2R)-N-[(2R)-2-(1-benzylpiperidin-4-yl)-2-hydroxyethyl]-4-(3-cyano-5-fluorophenyl)-2-methylpiperazine-1-carboxamide] is 10 to 100 nM; for `C[C@@H]1CN(c2cc(F)c(F)c(F)c2)CCN1C(=O)NCC[C@H]1CCN(Cc2ccccc2)C1` [7-5, (2R)-N-{2-[(3S)-1-benzylpyrrolidin-3-yl]ethyl}-2-methyl-4-(3,4,5-trifluorophenyl)piperazine-1-carboxamide] it is 100 to 1000 nM.
The figure for `C[C@@H]1CN(c2cc(F)c(F)c(F)c2)CCN1C(=O)NCCN1CCN(Cc2ccccc2)CC1` [7-6, (2R)-N-[2-(4-benzylpiperazin-1-yl)ethyl]-2-methyl-4-(3,4,5-trifluorophenyl)piperazine-1-carboxamide] is 100 to 1000 nM; for `C[C@@H]1CN(c2cc(F)c(F)c(F)c2)CCN1C(=O)NCCN1CCC(O)(Cc2ccccc2)CC1` [7-7, (2R)-N-[2-(4-benzyl-4-hydroxypiperidin-1-yl)ethyl]-2-methyl-4-(3,4,5-trifluorophenyl)piperazine-1-carboxamide] it is 100 to 1000 nM.
The figure for `C[C@@H]1CN(c2cc(F)cc(C#N)c2)CCN1C(=O)NCC[C@H]1CCN(Cc2ccccc2)C1` [7-8, (2R)-N-{2-[(3S)-1-benzylpyrrolidin-3-yl]ethyl}-4-(3-cyano-5-fluorophenyl)-2-methylpiperazine-1-carboxamide] is 100 to 1000 nM; for `C[C@@H]1CN(c2cc(F)c(F)c(F)c2)CCN1C(=O)NCCN(C)[C@@H]1C[C@H](CO)N(Cc2ccccc2)C1` [7-13, (2R)-N-(2-{[(3R,5R)-1-benzyl-5-(hydroxymethyl)pyrrolidin-3-yl](methyl)amino}ethyl)-2-methyl-4-(3,4,5-trifluorophenyl)piperazine-1-carboxamide] it is 100 to 1000 nM; for `O=C(NCCC1CCN(Cc2ccccc2)CC1)N1CCN(c2cccc(OC(F)(F)F)c2)CC1` [8-2, N-[2-(1-benzylpiperidin-4-yl)ethyl]-4-[3-(trifluoromethoxy)phenyl]piperazine-1-carboxamide] it is 10 to 100 nM.
Regarding `O=C(NCCC1CCN(Cc2ccccc2)CC1)N1CCC(c2cccc(C(F)(F)F)c2)CC1` [8-3, N-[2-(1-benzylpiperidin-4-yl)ethyl]-4-[3-(trifluoromethyl)phenyl]piperidine-1-carboxamide], the Ki was 10 to 100 nM.
The figure for `O=C(NCCC1CCN(Cc2ccccc2)CC1)N1CCC(c2ccc(Cl)cc2)CC1` [8-4, N-[2-(1-benzylpiperidin-4-yl)ethyl]-4-(4-chlorophenyl)piperidine-1-carboxamide] is 10 to 100 nM; for `COc1cccc(C2CCN(C(=O)NCCC3CCN(Cc4ccccc4)CC3)CC2)c1` [8-5, N-[2-(1-benzylpiperidin-4-yl)ethyl]-4-(3-methoxyphenyl)piperidine-1-carboxamide] it is 100 to 1000 nM.
